Patent US7655216B2, “Vaccine for activating helper function of CD8+ Tcells” (University of Pittsburgh - Of the Commonwealth of Higher …, priority 2007, dated 2010)
Entries after “also recorded” stand apart in the source; their conditions may differ. The star is where a group is joined. Cbz = O=C(OCc1ccccc1)*; CH2F = FC*

Key:
[1] = tested on: immature DCs co-cultured with effector-type CD8+ T cells; format: cell-based, human
SEB loaded DCs = format: cell-based, human
PI-9 in DCs = assay: Intracellular PI-9 expression in DCs (flow cytometry); format: cell-based, human
Method: Flow cytometry. Cell surface phenotype was analyzed by flow cytometry using Beckman Coulter XL. The FITC and PE-labeled isotype controls (mouse IgG1 and IgG2a), anti-human CD86, anti-human perforin were obtained from BD Pharmingen. CD83 monoclonal antibody was purchased from Immunotech and PE-labeled Granzyme B antibody was obtained from Cell Sciences. Goat anti-mouse IgG-FITC conjugated was obtained from Caltag Laboratories. For detection of intracellular PI-9, PI-9 specific mouse monoclonal IgG1 antibody was used as described (Bladergroen et al., J. Immunol. 166:3218-3225 (2001)). Briefly, for intracellular staining of PI-9, DCs were washed and then blocked with human Ig for 10 minutes at room temperature. Subsequently, cells were permeabilized with 300 μl of Permiflow (Invirion, Frankfort, Mich.) for 60 minutes at room temperature and then washed. The cells were stained with unconjugated anti human PI-9 antibody for 20 minutes at room temperature followed by staining with FITC conjugated goat anti-mouse IgG antibody. Granzyme B and perforin staining were performed according to manufacturer's protocol, using Permiflow as permeabilization reagent. […]
Intracellular expression of PI-9 (open profiles) in DCs has been analyzed by flow cytometry before and after (15 and 120 minutes) the exposure to recombinant TNFα (50 ng/ml).

[2] = tested on: SEB-loaded DCs co-cultured with memory-type CD8+ T cells; format: cell-based, human
MC38 adenocarcinoma = tested on: MC38 adenocarcinoma; set-up: species or system C57BL/6 mice; details: mouse, in vivo, sc

Molecule: O=C(O)CN(CCOCCOCCN(CC(=O)O)CC(=O)O)CC(=O)O [EGTA]
- DC killing by effector-type CD8+ T cells [1]: completely eliminated

Molecule: Cbz-IETD-CH2F
- CTL-induced DC death (survival of DCs) [1]: abrogated the CTL-induced DC death

Molecule: Concanamycin A
- DC activation / phenotypic maturation (CD86, CD83) (SEB loaded DCs): enhance DC activation
- DC killing by effector-type CD8+ T cells [1]: completely eliminated; also recorded: abrogated their DC-killing ability

Molecule: IETD-CHO
- CTL-induced DC death (survival of DCs) [1]: abrogated the CTL-induced DC death

Molecule: Infliximab
- memory-type CD8+ T cell-induced induction of PI-9 in DCs (PI-9 in DCs; 10 hour time point): blocks
- DC survival in co-culture with memory-type CD8+ T cells [2]: equally effective in converting the memory T cell-induced DC activation into memory T cell-induced DC death; also recorded: reduces DC survival

Molecule: KAVYNFATC [LCMVgp33-41]
- induction of MC38-specific CTL activity (killing MC38) (MC38 adenocarcinoma): more effective in killing MC38 than a DC vaccine loaded only with tumor antigen

Molecule: SIINFEKL [OVA257-264]
- induction of MC38-specific CTL activity (killing MC38) (MC38 adenocarcinoma): more effective in killing MC38 than a DC vaccine loaded only with tumor antigen

Molecule: TNFα
- resistance of immature DCs to CTL killing [1]: acquired resistance to CTL killing
- induction of PI-9 in DCs (PI-9 in DCs; recombinant TNFα 50 ng/ml, 15 and 120 minutes): Rapid induction of PI-9

B1: soluble TNF receptor I: recombinant human soluble TNF-RI (R&D Systems) (protein, UniProt P19438 30-211, looked up)
extracellular domain: LVPHLGDREKRDSVCPQGKYIHPQNNSICCTKCHKGTYLYNDCPGPGQDTDCRECESGSFTASENHLRHCLSCSKCRKEMGQVEISSCTVDRDTVCGCRKNQYRHYWSENLFQCFNCSLCLNGTVHLSCQEKQNTVCTCHAGFFLRENECVSCSNCKKSLECTKLCLPQIENVKGTEDSGTT
modifications: extracellular domain
- DC survival in co-culture with memory-type CD8+ T cells [2]: equally effective in converting the memory T cell-induced DC activation into memory T cell-induced DC death
